The values below are quoted from earlier work in EP2537519A1, “NEUROPATHIC PAIN ALLEVIATING AGENT” (HBC Science Laboratory Co., Ltd, priority 2010, dated 2011).

Structures are written as SMILES.

This data set deals with Cav3.2 (Homo sapiens, UniProt O95180). As to conditions: reported by Nelson et al., J Neurosci 2007.
Cav3.2, sequence (O95180 whole entry): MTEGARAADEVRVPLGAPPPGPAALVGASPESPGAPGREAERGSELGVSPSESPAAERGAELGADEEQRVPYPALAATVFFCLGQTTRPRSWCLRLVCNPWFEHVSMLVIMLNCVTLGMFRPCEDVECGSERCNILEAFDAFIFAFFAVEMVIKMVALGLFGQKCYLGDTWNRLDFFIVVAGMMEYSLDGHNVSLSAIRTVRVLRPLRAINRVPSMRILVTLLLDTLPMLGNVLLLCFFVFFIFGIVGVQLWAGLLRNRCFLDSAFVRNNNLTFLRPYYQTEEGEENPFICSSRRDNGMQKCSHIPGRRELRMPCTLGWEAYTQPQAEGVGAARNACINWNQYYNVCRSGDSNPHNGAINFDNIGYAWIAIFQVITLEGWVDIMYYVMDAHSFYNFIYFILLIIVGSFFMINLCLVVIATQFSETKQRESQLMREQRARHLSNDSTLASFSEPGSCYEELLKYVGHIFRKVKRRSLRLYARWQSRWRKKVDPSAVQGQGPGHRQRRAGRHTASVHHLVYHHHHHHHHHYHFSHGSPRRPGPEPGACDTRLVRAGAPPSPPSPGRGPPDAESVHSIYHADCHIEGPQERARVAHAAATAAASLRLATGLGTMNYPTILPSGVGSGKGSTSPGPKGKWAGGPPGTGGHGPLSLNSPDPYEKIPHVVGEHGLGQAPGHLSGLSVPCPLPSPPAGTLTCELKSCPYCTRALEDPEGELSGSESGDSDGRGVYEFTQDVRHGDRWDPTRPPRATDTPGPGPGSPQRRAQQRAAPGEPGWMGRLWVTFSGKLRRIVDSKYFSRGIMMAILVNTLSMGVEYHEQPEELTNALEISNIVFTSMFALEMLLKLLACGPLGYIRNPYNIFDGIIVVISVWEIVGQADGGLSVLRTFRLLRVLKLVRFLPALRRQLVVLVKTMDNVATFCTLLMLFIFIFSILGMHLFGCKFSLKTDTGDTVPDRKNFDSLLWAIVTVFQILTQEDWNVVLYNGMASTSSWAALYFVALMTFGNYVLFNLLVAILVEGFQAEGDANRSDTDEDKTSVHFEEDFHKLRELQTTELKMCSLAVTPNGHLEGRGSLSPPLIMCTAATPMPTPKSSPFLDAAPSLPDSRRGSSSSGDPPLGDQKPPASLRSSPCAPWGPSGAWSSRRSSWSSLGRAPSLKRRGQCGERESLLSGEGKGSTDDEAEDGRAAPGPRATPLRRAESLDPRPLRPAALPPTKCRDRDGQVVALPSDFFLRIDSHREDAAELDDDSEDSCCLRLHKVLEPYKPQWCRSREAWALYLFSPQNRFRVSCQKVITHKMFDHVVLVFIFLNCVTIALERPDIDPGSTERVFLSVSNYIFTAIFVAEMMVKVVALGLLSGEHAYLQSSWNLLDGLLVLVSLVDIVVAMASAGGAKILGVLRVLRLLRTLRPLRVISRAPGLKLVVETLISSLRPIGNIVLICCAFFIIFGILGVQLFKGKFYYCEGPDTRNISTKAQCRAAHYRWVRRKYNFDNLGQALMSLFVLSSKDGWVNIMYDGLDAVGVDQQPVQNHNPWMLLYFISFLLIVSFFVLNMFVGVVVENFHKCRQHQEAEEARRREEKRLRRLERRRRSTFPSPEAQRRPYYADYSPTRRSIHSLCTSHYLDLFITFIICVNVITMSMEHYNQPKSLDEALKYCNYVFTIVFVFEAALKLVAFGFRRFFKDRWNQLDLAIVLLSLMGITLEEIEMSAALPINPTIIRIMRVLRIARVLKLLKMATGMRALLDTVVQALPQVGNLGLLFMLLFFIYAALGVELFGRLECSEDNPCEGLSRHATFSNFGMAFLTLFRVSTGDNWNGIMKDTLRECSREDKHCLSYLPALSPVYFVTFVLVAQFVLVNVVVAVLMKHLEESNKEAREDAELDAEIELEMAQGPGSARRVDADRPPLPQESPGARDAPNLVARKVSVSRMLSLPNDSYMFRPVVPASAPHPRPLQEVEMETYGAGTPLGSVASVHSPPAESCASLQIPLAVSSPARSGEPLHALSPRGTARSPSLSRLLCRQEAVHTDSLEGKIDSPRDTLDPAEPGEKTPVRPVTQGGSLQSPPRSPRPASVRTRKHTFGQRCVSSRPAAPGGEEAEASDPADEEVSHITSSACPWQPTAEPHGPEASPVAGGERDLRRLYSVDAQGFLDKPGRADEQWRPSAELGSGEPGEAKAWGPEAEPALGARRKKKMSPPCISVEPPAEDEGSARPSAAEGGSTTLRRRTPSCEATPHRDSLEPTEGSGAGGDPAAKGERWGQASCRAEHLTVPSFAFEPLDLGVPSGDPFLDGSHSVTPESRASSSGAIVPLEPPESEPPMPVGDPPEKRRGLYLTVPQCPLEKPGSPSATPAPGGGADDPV

`O=C1O[C@H]([C@@H](O)CO)C(O)=C1O` [ascorbic acid]: the “inhibition of Cav3.2 among T-type Ca2+ channels” value is “specifically inhibits”.
